The source of these data is patent publication US4181714A (priority 1977, dated 1980).

The test system of data set [1] is Pyricularia oryzae. The class given is in vivo. As to conditions: blast of rice, 20 ppm in sprayed dilution.
The subject of data set [2] is blast of rice. As to conditions: commercially available antibiotic chemical; cited from earlier work.
In data set [3] the test system is Colletotrichum lagenarium. Nature of the data set: Test on control effect on anthracnose in cucumber. The data set is classed as in vivo. The settings on record: 1000 ppm in sprayed composition. Here is the method: Cucumber seedlings (Sagami Hanpaku variety) planted one plant per pot were used for the test, and each test area included three pots. After seeding was carried out by using Kureha Soil, the pots were kept for 2 weeks in an air-conditioned green house (maximum daytime temperature=28° C., minimum night temperature=20° C., light illumination time=12 hours per day, light source=sunglow lamp) to grow the cucumber plants.
A chemical composition having a predetermined concentration, which was prepared according to the method described in Example 3 was sprayed on the plants by a spray gun and the plants were air-dried for 2 hours in a green house.
Spores of a pathogenic fungus causing anthracnose in cucumber (Colletotrichum lagenarium), which had been cultured for 10 days at 23° C. in an agar slant culture medium of sweet corn, were taken into sterilized water, and one drop of a spreader was added to 50 cc of the spore suspension. In an inoculation box, the spore suspension was sprayed on the plants in an amount of 50 cc per 50 seedling by a spray gun to effect inoculation. […]
The total number of disease spots on leaves of the plants of each area was counted and the control value was calculated according to the following formula: [formula]

Data set [4] deals with plants. As to the kind of experiment: Phytotoxicity (general statement). The data set is classed as in vivo.

Regarding `CN(CC[C@H](N)CC(=O)N[C@H]1C=C[C@H](n2ccc(N)nc2=O)O[C@@H]1C(=O)O)C(=N)N` [Blasticidin S, blasticidinS-benzylaminobenzene-sulfonate], in data set [1], the “Control Value” was found to be 95%. In addition, in data set [2], the “Specificity of controlling effect” value is “specific effect on blast of rice alone”.
On to “manganous ethylene1,2-bis-dithiocarbomate- [Maneb-Dithane]”, for which the “Control Value” in data set [3] is reported as 95%. Moreover, the Phytotoxicity entry in data set [4] is on record as “causes phytotoxicity”.
